Patent publication US20250101063A1, “POLYPEPTIDE COMPOUND AND USE THEREOF IN TREATMENT OF ENTERITIS” (Sichuan Gooddoctor Panxi Pharmaceutical Co., Ltd., priority 2022, published 2025)
Where no end group is shown, it is not given here. [ ]: non-standard residue; d: D form. pGlu = O=C1CC[C@@H](C(=O)O)N1

test system: zebrafish model of intestinal mucosal injury; test: Efficacy in relieving colitis: intestinal lumen area in TNBS-treated zebrafish; type: in vivo; parameters: key to Activity in relieving intestinal lumen dilatation: * p < 0.05; ** p < 0.01; *** p < 0.001; “−“ indicates absence of activity; “+” indicates some relief of intestinal lumen dilatation; “#” indicates that all the zebrafishes died in the experiment; “&” indicates that 13 zebrafishes died in the experiment; conditions: 15.0 μg/mL (positive control), 2 days after TNBS, n = 10
Experimental: Experimental animals: Wild-type AB strain zebrafishes, bred by natural pair mating. Zebrafishes aged 3 days post fertilization (3 dpf). Zebrafishes were kept in fish farming water at 28° C. (water quality: 200 mg of instant sea salt in each 1L of reverse osmosis water, with the conductivity of 450-550 μS/cm; pH of 6.5-8.5; and hardness of 50-100 mg/L CaCO3), the experimental animal use license number is: SYXK (Zhe) 2012-0171, and the breeding management met the requirements of the international AAALAC certification (certification number: 001458).
(1) Grouping: Polypeptide group: prepared into a stock solution of 20.0 mg/mL with ultrapure water and stored at −20° C.
Positive control group: prednisone, as white powder, with batch number C10016501, Shanghai Macklin Biochemical Technology Co., Ltd., stored at 4° C.; prepared into a 15.0 mg/mL stock solution with DMSO, and stored in aliquots at −20° C.
Normal control group and model control group.
(2) Experimental method: 3 dpf wild-type AB strain zebrafishes were randomly selected and placed in a 6-well plate, with 30 zebrafishes in each well (experimental group). Except for the normal control group, all other experimental groups were given TNBS in water to establish the zebrafish model of intestinal mucosal injury. After 2 days of treatment at 28° C., TNBS was removed, and polypeptide compound in water (at concentrations shown in Table 4) was given respectively, and for the positive control, prednisone was 15.0 μg/mL. A normal control group (healthy group) and a model control group (intestinal mucosal injury group) were set up at the same time. The capacity of each well (experimental group) was 3 mL. After 2 days of treatment at 28° C., 10 zebrafishes were randomly selected from each experimental group and photographed under a dissecting microscope. NIS-Elements D 3.20 advanced image processing software was used to analyze and collect data, and the intestinal lumen area of the zebrafish was analyzed. The statistical analysis results of this indicator were used to evaluate the efficacy of the samples in relieving colitis. The statistics results were expressed as mean±SE. SPSS26.0 software was used for statistical analysis, and p<0.05 indicates statistically significant difference.
The concentration gradient of the test substances set in this experimental system was 250 μg/mL, 500 μg/mL, and 1000 μg/mL. […] When the concentration of the test substance was further increased for intervention, the death phenomenon of zebrafishes was found in the group; therefore, in the subsequent rounds of activity evaluation, each test polypeptide compound was uniformly administered at 1000 μg/mL for intervention.

Molecule	Intestinal lumen area (pixels, mean ± SE) [pixels]
C[C@]12C=CC(=O)C=C1CC[C@@H]1[C@@H]2C(=O)C[C@@]2(C)[C@H]1CC[C@]2(O)C(=O)CO [Prednisone, prednisone, reference compound]	34929 ± 1913

same assay, conditions: 250 μg/mL in water, 2 days after TNBS, n = 10

Molecule	Intestinal lumen area (pixels, mean ± SE) [pixels]
PRKVAAQ [Compound 5]	42960 ± 2661
KEPVPQAK [Compound 4]	48915 ± 2720

same assay, conditions: 500 μg/mL in water, 2 days after TNBS, n = 10

Molecule	Intestinal lumen area (pixels, mean ± SE) [pixels]
PRKVAAQ [Compound 5]	45713 ± 4481
KEPVPQAK [Compound 4]	40432 ± 3736

same assay, conditions: 1000 μg/mL in water, 2 days after TNBS, n = 10

Molecule	Intestinal lumen area (pixels, mean ± SE) [pixels]
PRKVAAQ [Compound 5]	33977 ± 3524
KEPVPQAK [Compound 4]	33664 ± 3758

same assay, conditions: 1000 μg/mL; significance vs model control group of the same batch

Molecule	Activity in relieving intestinal lumen dilatation
PRKVAAQ [Compound 5]	* (* p < 0.05)
Pro-Val-Pro-Glu-Ala (PVPEA; printed: Pro-Val-Pro-Glu-Ala) [Compound 40]	+
KEPAPQAKPRKVAAQ [Compound 25]	** (** p < 0.01)
KEPVPQAK [Compound 4]	* (* p < 0.05)
KEPVPQ [Compound 87]	+
EPVPQAKPRK [Compound 38]	* (* p < 0.05)
KEGVPQAKGRKVAAQ [Compound 36]	+
EPVPAAK [Compound 47]	+
EP[dV]PQAK [Compound 80]	+
KEPVPQAKPR[dK]VAAQ [Compound 71]	+
NPVPQAK [Compound 50]	* (* p < 0.05)
Pro-Val-Pro-Ile-Ala (PVPIA; printed: Pro-Val-Pro-Ile-Ala) [Compound 41]	+
KQPVPQAKPRKVAAQ [Compound 105]	** (** p < 0.01)
EPVPQ[dA]K [Compound 83]	* (* p < 0.05)
APVPQAK [Compound 46]	+
EPVPQA[dK] [Compound 84]	+
SSEDIKEKEPVPQAKPRKVAAQ [Compound 97]	*** (*** p < 0.001)
EPVAQAK [Compound 54]	*** (*** p < 0.001)
RKDVYPVPQ [Compound 94]	*** (*** p < 0.001)
KEPVGQAKGRKVAAQ [Compound 34]	* (* p < 0.05)
EPVGQAK [Compound 77]	−
KEPVPQ[dA]KPRKVAAQ [Compound 67]	* (* p < 0.05)
KEPVPQAKARKVAAQ [Compound 26]	* (* p < 0.05)
KEAVPQAKPRKVAAQ [Compound 21]	+

Molecule	Activity in relieving intestinal lumen dilatation
PAYKEPVPQAKPRKVAAQ [Compound 90]	* (* p < 0.05)
EAVPQAK [Compound 53]	* (* p < 0.05)
Lys-Glu-Pro-Val (KEPV; printed: Lys-Glu-Pro-Val) [Compound 7]	+
KE[dP]VPQAKPRKVAAQ [Compound 63]	*** (*** p < 0.001)
KEPVPQAKPAKVAAQ [Compound 27]	+
GPETAFLRKEPVPQAKPRKVAAQ [Compound 95]	** (** p < 0.01)
PVPQAKP [Compound 60]	−
EPV[dP]QAK [Compound 81]	+
KEPVGQAKPRKVAAQ [Compound 32]	+
D-Glu-Pro-Val-Pro-Gln-Ala-Lys ([dE]PVPQAK; also: acetate salt) [Compound 78]	+
DPVPQAK [Compound 49]	* (* p < 0.05)
Lys-Pro-Arg-Lys (KPRK; printed: Lys-Pro-Arg-Lys) [Compound 10]	** (** p < 0.01)
KEPVPQAKPRKVAAN [Compound 104]	*** (*** p < 0.001)
EPVPQAKPR [Compound 57]	** (** p < 0.01)
KEPVPAAKPRKVAAQ [Compound 23]	+
KEPVPQAKPRKAAAQ [Compound 29]	* (* p < 0.05)
RKDVYEPVPQAK [Compound 93]	* (* p < 0.05)
SSEDIKEEPVPQAK [Compound 98]	** (** p < 0.01)
PVPQAK [Compound 44]	−
EPAPQAK [Compound 52]	+
KEPVPQAKPRK[dV]AAQ [Compound 72]	** (** p < 0.01)
EPVPQAKPRKVA [Compound 51]	* (* p < 0.05)
RKDVYKEPVPQAKPRKVAAQ [Compound 91]	+
Val-Pro-Gln-Ala (VPQA; printed: Val-Pro-Gln-Ala) [Compound 13]	−

Molecule	Activity in relieving intestinal lumen dilatation
Lys-Val-Ala-Ala (KVAA; printed: Lys-Val-Ala-Ala) [Compound 16]	+
EGVPQAK [Compound 76]	+
AEPVPQAKPRKVAAQ [Compound 19]	+
E[dP]VPQAK [Compound 79]	+
K[dE]PVPQAKPRKVAAQ [Compound 62]	* (* p < 0.05)
pyro-Glu-Leu-Lys-Glu-Pro-Val-Pro-Gln-Ala-Lys-Pro-Arg-Lys-Val-Ala-Ala-Gln ([pGlu]LKEPVPQAKPRKVAAQ; also: acetate salt) [Compound 89]	** (** p < 0.01)
KEPVP[dQ]AKPRKVAAQ [Compound 66]	* (* p < 0.05)
KEPVPQAKP[dR]KVAAQ [Compound 70]	* (* p < 0.05)
Pro-Val-Pro-Gln-Ala (PVPQA; printed: Pro-Val-Pro-Gln-Ala) [Compound 39]	+
KEGVPQAKPRKVAAQ [Compound 31]	* (* p < 0.05)
Pro-Val-Pro-Ala (PVPA; printed: Pro-Val-Pro-Ala) [Compound 42]	+
KEPVPQA[dK]PRKVAAQ [Compound 68]	** (** p < 0.01)
KEPVPQAK[dP]RKVAAQ [Compound 69]	+
Glu-Pro-Val-Pro (EPVP; printed: Glu-Pro-Val-Pro) [Compound 9]	** (** p < 0.01)
EPVPQAA [Compound 48]	** (** p < 0.01)
KEGVGQAKPRKVAAQ [Compound 37]	+
EPVPQAKP [Compound 58]	+
EPVPQAR [Compound 45]	#
KEPV[dP]QAKPRKVAAQ [Compound 65]	* (* p < 0.05)
KAPVPQAKPRKVAAQ [Compound 20]	&
Glu-Pro-Val-Pro-Gln (EPVPQ; printed: Glu-Pro-Val-Pro-Gln) [Compound 86]	* (* p < 0.05)
KEGVGQAKGRKVAAQ [Compound 35]	−
KEPVAQAKPRKVAAQ [Compound 22]	+
EPVPEAK [Compound 55]	* (* p < 0.05)

same assay, conditions: 250, 500, 1000 μg/mL; Table 4

Molecule	Intestinal lumen area compared with the model control group (in words)
PRKVAAQ [Compound 5]	significant statistical differences compared with the model control group
KEPVPQAK [Compound 4]	significant statistical differences compared with the model control group
